According to US20180273598A1, “ADHD MARKER, APPLICATION THEREOF AND KIT” (WENZHOU KANGNING HOSPITAL CO., LTD., priority 2017, published 2018):

Assays:
wild larvae zebrafish = assay: Behavior tracking of wild-type zebrafish larvae treated with GHSR-1a antagonist; format: in vivo; conditions: wild-type (AB) embryos treated from 6 hpf to 3 dpf; 0.08 uM/L YIL781 (FIG. 4)
Description: Zebrafish embryos (AB) were treated with different concentrations of YIL781 (0.08 uM, 0.4 uM, 2 uM, 10 uM, 50 uM) from 6 hpf to 3 dpf, and the behavior was detected by viewpoint behavioral recorder. The concrete scheme was as follows: [table]

ghrelin mutant zebrafish = assay: Behavior tracking of ghrelin mutant zebrafish larvae treated with methylphenidate; format: in vivo; conditions: ghrelin-/- embryos, 10 uM for 1 h at 3 dpf (FIG. 6)
Description: The embryos produced by ghrelin+/+, ghrelin−/− zebrafish intercross were treated with Methylphenidate at 72 hpf for 1 h. Pick a single hatched zebrafish larvae into a 96-well plate, behavior was tested as following table. After test, the genotype of the zebrafish larvae was identified by PCR and enzyme digestion.
The ghrelin^−/− embryos were treated with 10 uM methylphenidate for 1 h at 3 dpf, and the movement distance was measured by behavior recorder.

**Q.** How did the “activity phenotype of normal zebrafish larvae (behavioral recorder)” value (wild larvae zebrafish) turn out when `Cc1nc2ccc(Oc3ccc(F)cc3)cc2c(=O)n1C[C@H]1CCCN(C(C)C)C1` [YIL781] was run?
**A.** induced normal zebrafish to produce a hyperactivity phenotype

**Q.** `COC(=O)C(c1ccccc1)C1CCCCN1` (stereo not drawn) [methylphenidate] was tested. Which “movement distance of ghrelin mutant after treatment” value (ghrelin mutant zebrafish) did it give?
**A.** decreased its movement distance

**Q.** And the “movement distance of treated ghrelin mutant compared with the control group” value (ghrelin mutant zebrafish)?
**A.** no significantly different with the control group
